The Deep4Chem optical property database

Assay: photoluminescence quantum yield (fraction); solvent given as SMILES

With `C#CCN1C(=O)/C(=C/c2cc(OC(C)C)ccc2OC(C)C)N=C1C` the photoluminescence quantum yield (in C1COCCO1) was 0.108, the photoluminescence quantum yield (in CC#N) was 0.134 and the photoluminescence quantum yield (in CC(C)=O) was 0.12. It also gave a photoluminescence quantum yield (in CCCCCC) of 0.089, a photoluminescence quantum yield (in CCCCO) of 0.029 and a photoluminescence quantum yield (in CCCO) of 0.08. For the same molecule, the photoluminescence quantum yield (in CCO) was 0.025, the photoluminescence quantum yield (in CCOC(C)=O) was 0.101 and the photoluminescence quantum yield (in CN(C)C=O) was 0.171. For the same molecule, the photoluminescence quantum yield (in CO) was 0.019 and the photoluminescence quantum yield (in CS(C)=O) was 0.182.

For `c1ccc(-c2c3c(nc4ccccc24)-c2cc4c(cc2CC3)-c2nc3ccccc3c(-c3ccccc3)c2CC4)cc1`, the photoluminescence quantum yield (in ClC(Cl)Cl) was 0.84.

With `CN(C)c1ccc(C2=Cc3c4ccccc4cc[n+]3[B-](F)(F)O2)cc1` the photoluminescence quantum yield (in C1CCOC1) was 0.658, the photoluminescence quantum yield (in C1COCCO1) was 0.863 and the photoluminescence quantum yield (in CC1CCCCC1) was 0.979. It also gave a photoluminescence quantum yield (in CC#N) of 0.638, a photoluminescence quantum yield (in CCOC(C)=O) of 0.663 and a photoluminescence quantum yield (in CCOCC) of 0.848. The photoluminescence quantum yield (in CN(C)C=O) was 0.561, the photoluminescence quantum yield (in CO) was 0.499 and the photoluminescence quantum yield (in COC(C)=O) was 0.587. It also gave a photoluminescence quantum yield (in ClC(Cl)Cl) of 0.743.

`C=CCNc1ccc2c(ccc3oc4cc(=[N+](C)C)ccc-4nc32)c1` gave a photoluminescence quantum yield (in CC#N) of 0.06, a photoluminescence quantum yield (in CCO) of 0.05 and a photoluminescence quantum yield (in ClCCl) of 0.4. For the same molecule, the photoluminescence quantum yield (in O) was 0.009.

In the case of `Nc1cccc2c1-c1ccccc1C2=O`, the photoluminescence quantum yield (in C1CCCCC1) is reported as 0.035, the photoluminescence quantum yield (in CC#N) is reported as 0.012 and the photoluminescence quantum yield (in CCO) is reported as 0.00024. The photoluminescence quantum yield (in c1ccccc1) was 0.074.

`COc1cc(-c2nc3c4cccnc4c4ncccc4c3[nH]2)c(OC)cc1/C=C/c1nc2ccccc2[nH]1` showed a photoluminescence quantum yield (in C1CCOC1) of 0.75, a photoluminescence quantum yield (in CC#N) of 0.43 and a photoluminescence quantum yield (in CO) of 0.21. For the same molecule, the photoluminescence quantum yield (in ClCCl) was 0.62.

For `CCn1c(-c2ccc(-c3ccc4c(c3)C(c3ccccc3)(c3ccccc3)c3ccccc3-4)cc2)c(-c2ccc3ccccc3c2)c(-c2ccc3ccccc3c2)c1-c1ccc(-c2ccc3c(c2)C(c2ccccc2)(c2ccccc2)c2ccccc2-3)cc1`, the photoluminescence quantum yield (in CCOC(C)=O) was 0.99.

With `c1ccc(-c2nc(-c3ccc(-c4ccc(-c5nc(-c6ccccc6)c(-c6ccccc6)o5)cc4)cc3)oc2-c2ccccc2)cc1` the photoluminescence quantum yield (in C1COCCO1) was 0.74.

`CC1=CC(C)=[N+]2C1=C(c1ccc(N(C)C)cc1)c1c(C)cc(/C=C/c3ccc(N(C)C)cc3)n1[B-]2(F)F` showed a photoluminescence quantum yield (in CCOCC) of 0.78.

`CCCC1(CCC)c2ccccc2-c2ccccc21` showed a photoluminescence quantum yield (in C1CCCCC1) of 0.36.

Work on `O[Si](c1c2ccccc2cc2ccccc12)(c1c2ccccc2cc2ccccc12)c1c2ccccc2cc2ccccc12` yielded a photoluminescence quantum yield (in ClC(Cl)Cl) of 0.015.

With `Cc1c(C)c(B(c2c(C)c(C)c(C#N)c(C)c2C)c2c(C)c(C)c(N3c4ccccc4Oc4ccccc43)c(C)c2C)c(C)c(C)c1C#N` the photoluminescence quantum yield (in c1ccc([Si](c2ccccc2)(c2ccc(-n3c4ccccc4c4ccccc43)cc2)c2ccc(-n3c4ccccc4c4ccccc43)cc2)cc1) was 0.67.

For `CC(C)c1cc(C(C)C)c(B2c3cc(-n4c5ccc(C(C)(C)C)cc5c5cc(C(C)(C)C)ccc54)ccc3N(c3ccccc3)c3ccc(-n4c5ccc(C(C)(C)C)cc5c5cc(C(C)(C)C)ccc54)cc32)c(C(C)C)c1`, the photoluminescence quantum yield (in c1cc(-c2cccc(-n3c4ccccc4c4ccccc43)c2)cc(-n2c3ccccc3c3ccccc32)c1) was 0.98.

Molecule `CC1=CC(C)=[N+]2C1=C(c1ccc(I)cc1)c1c(C)cc(C)n1[B-]21OCCO1` has a photoluminescence quantum yield (in ClC(Cl)Cl) of 0.14.

With `Cc1cc(-c2ccc(C(C)(C)C)cc2)c2nsnc2c1-c1ccc(N(c2ccccc2)c2ccccc2)cc1` the photoluminescence quantum yield (in ClCCl) was 0.18.

Work on `CCC1=C(C)C2=C(/C=C/c3ccc(OC)cc3)c3c(C)c(CC)c(C)n3[B-](F)(F)[N+]2=C1C` yielded a photoluminescence quantum yield (in ClCCl) of 0.01.

`CC1(C)C(/C=C/C2=C(c3ccc(C(=O)O)cc3)C(=C/C=C3/N(CCCS(=O)(=O)[O-])c4ccc5ccccc5c4C3(C)C)/CCC2)=[N+](CCCS(=O)(=O)[O-])c2ccc3ccccc3c21` showed a photoluminescence quantum yield (in CO) of 0.088.

With `CC(C)(C)c1ccc2c(c1)c1ncncc1c1c3ccccc3sc21` the photoluminescence quantum yield (in ClCCl) was 0.1.

In the case of `Cc1ccc(-c2ccc(/C=C/c3ccc(F)cc3)cn2)nc1`, the photoluminescence quantum yield (in CC#N) is reported as 0.69.

`COc1c2ccccc2c(OC)c2c1c1c(F)cccc1n2C` gave a photoluminescence quantum yield (in C1CCCCC1) of 0.38, a photoluminescence quantum yield (in CC#N) of 0.26 and a photoluminescence quantum yield (in CO) of 0.33. The photoluminescence quantum yield (in ClCCl) was 0.41.

`N#CC(C#N)=Cc1ccc2c(c1)c1ccccc1n2-c1cc2ccccc2c2ccccc12` gave a photoluminescence quantum yield (in CC#N) of 0.09, a photoluminescence quantum yield (in CCCCC) of 0.16 and a photoluminescence quantum yield (in Cc1ccccc1) of 0.16. For the same molecule, the photoluminescence quantum yield (in ClCCl) was 0.04.

With `c1ccc2c(P(c3c4ccccc4cc4ccccc34)c3c4ccccc4cc4ccccc34)c3ccccc3cc2c1` the photoluminescence quantum yield (in C1CCOC1) was 0.

Work on `CC(C)[Si](C#Cc1c2cc3ccccc3cc2c(C#C[Si](C)(C)C)c2cc3ccccc3cc12)(C(C)C)C(C)C` yielded a photoluminescence quantum yield (in ClCCl) of 0.13.

With `O=[N+]([O-])c1ccc(/C=C/c2cn(S(=O)(=O)c3ccccc3)c3ccccc23)cc1` the photoluminescence quantum yield (in CC#N) was 0.066, the photoluminescence quantum yield (in CCCCCCC) was 0.004 and the photoluminescence quantum yield (in CO) was 0.002. For the same molecule, the photoluminescence quantum yield (in O) was 0.003.

Work on `COC(=O)/C(C#N)=c1\s/c(=c2/s/c(=C(/C#N)C(=O)OC)c3cc(-c4ccc(OC)cc4)sc23)c2sc(-c3ccc(OC)cc3)cc12` yielded a photoluminescence quantum yield (in Cc1ccccc1) of 0.424.

`Cc1ccc(-c2c3nc(c(-c4ccc(C)cc4)c4ccc([nH]4)c(-c4ccc(OC(=O)C(C)c5cccc(C(=O)c6ccccc6)c5)cc4)c4nc(c(-c5ccc(C)cc5)c5ccc2[nH]5)C=C4)C=C3)cc1` (configuration not stated) gave a photoluminescence quantum yield (in ClCCl) of 0.12.

In the case of `Cc1nc(-c2ccc(-n3c4ccccc4c4ccccc43)cc2)cc(-c2ccc(-n3c4ccccc4c4ccccc43)cc2)n1`, the photoluminescence quantum yield (in C1CCOC1) is reported as 0.61, the photoluminescence quantum yield (in CN(C)C=O) is reported as 0.73 and the photoluminescence quantum yield (in Cc1ccccc1) is reported as 0.65. It also gave a photoluminescence quantum yield (in ClC(Cl)Cl) of 0.61.
